The source of these data is the NIST ThermoML archive (doi:10.1021/je100125x).

± gives the expanded uncertainty stated by the source.

Series [1] in a line: Molar enthalpy of transition or fusion. The settings on record: Crystal; DSC.
The conditions of series [2]: Crystal; DTA.

With `C[C@@H]1CC[C@H]2[C@@H](C)C(=O)O[C@@H]3O[C@@]4(C)CC[C@@H]1[C@]32OO4` [artemisinin], the “Molar enthalpy of transition or fusion” value in series [1] was found to be 5.81 ± 0.225 kcal/mol. Moreover, the Triple point temperature in series [2] came to 429.6 ± 1.1 K.
